Assay results from patent US4717731A, “7H thieno[2,3-a]quinolizines, useful as α2 -andrenoceptor antagonist” (John Wyeth & Brother Limited, priority 1984, dated 1988).

What was measured:
[1] = system: α1 -adrenoceptors; assay: α1 antagonistic activity on the isolated anococcygeus muscle of the rat (vs phenylephrine or methoxamine); conditions: agonist phenylephrine or methoxamine, Schild method, 30 min
From the text: The compounds of the invention generally antagonise the α2 -adrenoceptors to a much greater extent than the α1 -adrenoceptors. The α1 antagonistic activity can be evaluated by a number of different methods. One method involves assessing the activity on the isolated anococcygeus muscle of the rat. The method is based on that of Gillespie, Br.J.Pharmac., 1972, 45, 404-416. In the procedure male rats (250-360 g) are killed by a blow on the head and bled. The two anococcygeus muscles are removed from their position in the midline of the pelvic cavity, where they arise from the upper coccygeal vertebrae. The muscles are suspended in 5 ml organ baths in Krebs solution containing 10^-4 M ascorbic acid; to prevent drug oxidation. The tissues are gassed with a 95% oxygen, 5% CO2 mixture and maintained at 37°. Longitudinal muscle contractions are recorded using isotonic transducers. Cumulative dose response curves are then obtained to phenylephrine or in some cases methoxamine, both agents being […] alpha adrenoceptor agonists. The concentration range of phenylephrine or methoxamine used is 0.02 to 0.8 μg.ml^-1. The agonist is then washed from the bath and the test drug added to the bathing medium at a concentration of 10^-6 M. After 30 min equilibration with the test drug a further agonist dose response curve is obtained. […]

[2] = system: α2 -adrenoceptor; assay: α2-adrenoceptor antagonistic activity on the rat field stimulated vas deferens preparation (vs clonidine); conditions: for α2 /α1 selectivity [antilog of (α2 pA2 -α1 pA2)]: from vas deferens α2 pA2 and anococcygeus α1 pA2; for pA2 for α2 -adrenoceptor antagonistic activity: rat field stimulated vas deferens, agonist clonidine, Schild plot, 90 min
Description: The compounds of the invention are tested for α2 -adrenoceptor antagonistic activity on the rat field stimulated vas deferens preparation using a modification of the method of Drew, Eur. J. Pharmac., 1977, 42, 123-130. The procedure is described below.
Desheathed vasa deferentia from sexually mature rats were suspended in a 6 ml organ bath in Krebs solution at 37° and bubbled with 5% CO2 in oxygen. Platinum ring electrodes were positioned above and below the tissue for field stimulation, the stimulus parameters being 0.1 Hz 1 ms pulse width at supramaximal voltage. Twitch responses were recorded isotonically with a 0.5 g loading. Clonidine hydrochloride was used as the α-adrenoceptor agonist and cumulative concentration-response curves were constructed for the inhibition of twitch obtained with clonidine in the range 0.125 to 4 ng ml^-1. After washing out clonidine, the twitch response quickly recovered and an antagonist was then introduced into the Krebs reservoir. Clonidine concentration-response curves were repeated 90 min after introduction of the antagonist. The concentration of clonidine producing 50% inhibition of twitch before and after introduction of antagonist were obtained and the dose-ratio for clonidine was calculated. Various concentrations of the antagonists were used.
Chemother., 1959, 14, 48-58 and the values of pA2 and slope were calculated.

Row | Compound | pA2 values for α1 antagonistic activity [1] | α2 /α1 selectivity [antilog of (α2 pA2 -α1 pA2)] [2] | pA2 for α2 -adrenoceptor antagonistic activity [2]
1 | CCCS(=O)(=O)N(C)[C@@H]1CCN2CCc3ccsc3[C@@H]2C1 (relative stereo) [Example 2, N-(4,5,8,9,10,10aα-hexahydro-7H-thieno[2,3-a]quinolizin-9β-yl)-N-methylpropanesulphonamide] | 5.9 | 40 | 7.5
2 | CCS(=O)(=O)NCCN([C@@H]1CCN2CCc3ccsc3[C@@H]2C1)S(=O)(=O)CC (relative stereo) [Example 5, N-(4,5,8,9α,10,10aα-Hexahydro-7H-thieno[2,3-a]quinolizin-9-yl)-N-(2-ethanesulphonamidoethyl)ethane sulphonamide] | 5.18 | 132 | 7.31
